# Results published in article PMC5263243, “PPE Surface Proteins Are Required for Heme Utilization by Mycobacterium tuberculosis” (mBio, 2017).
# Assays:
# PPE36 = PPE36 (Mycobacterium tuberculosis, UniProt P9WI01); test: biochemical
# PPE62 = target: T1, PPE62 (Mycobacterium tuberculosis, UniProt P9WHX7); test: SPR (Biacore T200, NTA chip, […] binding model); settings: read-out: Heme dissociation constant
# T1 construct: PPE62His6 (Rv3533c)
# T1 sequence (P9WHX7 1-582): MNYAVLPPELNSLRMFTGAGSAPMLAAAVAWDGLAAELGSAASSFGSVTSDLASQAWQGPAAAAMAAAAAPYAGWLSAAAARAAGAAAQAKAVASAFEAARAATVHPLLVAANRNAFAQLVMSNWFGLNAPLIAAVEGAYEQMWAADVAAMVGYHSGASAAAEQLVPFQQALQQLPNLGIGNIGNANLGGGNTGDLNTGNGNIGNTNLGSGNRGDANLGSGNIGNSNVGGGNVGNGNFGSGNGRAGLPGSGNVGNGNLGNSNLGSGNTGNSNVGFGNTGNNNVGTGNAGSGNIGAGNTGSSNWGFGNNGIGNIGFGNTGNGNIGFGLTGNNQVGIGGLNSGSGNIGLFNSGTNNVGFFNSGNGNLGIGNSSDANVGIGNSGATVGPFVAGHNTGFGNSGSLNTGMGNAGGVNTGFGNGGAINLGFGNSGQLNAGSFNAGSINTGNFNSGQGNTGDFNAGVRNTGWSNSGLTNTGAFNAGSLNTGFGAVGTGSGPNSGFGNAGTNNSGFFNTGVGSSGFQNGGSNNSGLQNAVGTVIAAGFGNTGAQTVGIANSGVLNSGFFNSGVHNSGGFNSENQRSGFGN
# PPE36, sequence (P9WI01 whole entry): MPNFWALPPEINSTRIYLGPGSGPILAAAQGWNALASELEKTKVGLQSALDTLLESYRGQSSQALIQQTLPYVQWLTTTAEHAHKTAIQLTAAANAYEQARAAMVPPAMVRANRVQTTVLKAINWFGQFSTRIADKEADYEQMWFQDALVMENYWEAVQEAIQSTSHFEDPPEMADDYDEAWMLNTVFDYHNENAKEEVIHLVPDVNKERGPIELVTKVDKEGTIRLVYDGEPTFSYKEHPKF
# PPE36, sequence (L7N6B5 1-98 partner): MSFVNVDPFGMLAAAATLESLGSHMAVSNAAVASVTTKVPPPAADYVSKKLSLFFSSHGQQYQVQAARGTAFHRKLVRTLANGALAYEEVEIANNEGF
smiles,measurement,setting,value
C=CC1=C(C)C2=Cc3c(C=C)c(C)c4[n]3[Fe]([Cl])[n]3c(c(C)c(CCC(=O)O)c3=CC3=NC(=C4)C(C)=C3CCC(=O)O)=CC1=N2 [hemin],Kd,PPE36,4000 µM
same,Kd,PPE62,400 µM
